# Data: ChEMBL document CHEMBL2021896, “A novel pyrimidine derivatives with aryl urea, thiourea and sulfonamide moieties: synthesis, anti-inflammatory and antimicrobial evaluation” (2012)
# Active and inactive are the calls of the source. The rule behind the calls is not given here.
# Legend:
# [1] = tested on: THP-1; experiment: Antiinflammatory activity in human PMA-stimulated THP1 cells assessed as inhibition of LPS-induced TNFalpha production at 1 uM treated 30 mins before LPS challenge measured after 24 hrs by ELISA; type: functional
# [2] = tested on: THP-1; experiment: Antiinflammatory activity in human PMA-stimulated THP1 cells assessed as inhibition of LPS-induced IL-6 production at 1 uM treated 30 mins before LPS challenge measured after 24 hrs by ELISA; type: functional
# [3] = tested on: THP-1; experiment: Antiinflammatory activity in human PMA-stimulated THP1 cells assessed as inhibition of LPS-induced TNFalpha production at 10 uM treated 30 mins before LPS challenge measured after 24 hrs by ELISA; type: functional
# [4] = tested on: THP-1; experiment: Antiinflammatory activity in human PMA-stimulated THP1 cells assessed as inhibition of LPS-induced IL-6 production at 10 uM treated 30 mins before LPS challenge measured after 24 hrs by ELISA; type: functional
# [5] = tested on: Staphylococcus aureus; experiment: Antibacterial activity against Staphylococcus aureus up to 200 ug/ml by agar well diffusion method; type: functional, organism-based
# [6] = tested on: Bacillus subtilis; experiment: Antibacterial activity against Bacillus subtilis up to 200 ug/ml by agar well diffusion method; type: functional, organism-based
# [7] = tested on: Escherichia coli; experiment: Antibacterial activity against Escherichia coli up to 200 ug/ml by agar well diffusion method; type: functional, organism-based
# [8] = tested on: Salmonella typhimurium; experiment: Antibacterial activity against Salmonella typhimurium up to 200 ug/ml by agar well diffusion method; type: functional, organism-based; conditions: Salmonella enterica subsp. enterica serovar Typhimurium
# [9] = tested on: Candida albicans; experiment: Antifungal activity against Candida albicans up to 200 ug/ml by agar well diffusion method; type: functional, organism-based
# [10] = tested on: Aspergillus niger; experiment: Antifungal activity against Aspergillus niger up to 200 ug/ml by agar well diffusion method; type: functional, organism-based
# [11] = tested on: Fusarium solani; experiment: Antifungal activity against Fusarium solani up to 200 ug/ml by agar well diffusion method; type: functional, organism-based
# [12] = tested on: Aspergillus flavus; experiment: Antifungal activity against Aspergillus flavus up to 200 ug/ml by agar well diffusion method; type: functional, organism-based
Compound,inhibition at 1 µM [1] [%],inhibition at 1 µM [2] [%],inhibition at 10 µM [3] [%],inhibition at 10 µM [4] [%],Activity [5],Activity [6],Activity [7],Activity [8],Activity [9],Activity [10],Activity [11],Activity [12]
C[C@@H]1C[C@H]2[C@@H]3CCC4=CC(=O)C=C[C@]4(C)[C@@]3(F)[C@@H](O)C[C@]2(C)[C@@]1(O)C(=O)CO [DEXAMETHASONE],72,86,,,,,,,,,,
Cc1ccccc1NC(=S)Nc1ccc(-c2cc(Nc3cccc(C(F)(F)F)c3)ncn2)cc1,,,0,0,inactive,inactive,inactive,inactive,inactive,inactive,inactive,inactive
